Test results: article PMC7413254 (Nature Communications, 2020)
Read-outs that look alike come from different tables or passages of the source.

Legend:
non-expressing oocytes [1] = test: cells; assay type: cell-based, Xenopus laevis; details: non-expressing oocytes, total [3H]CQ transport, normalised to the oocyte type control
Method in brief: (§1)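 Each treatment used ten oocytes, repeated in at least four experiments on different days with oocytes from different frogs. Conditions: ND96 pH 5.5, 27.5 °C, 1.5 h; read-out by scintillation counting.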

PfCRT^3D7 [2] = target: T1, PfCRT^3D7 (Plasmodium falciparum, UniProt Q8IBZ9); test: cell-based; assay type: cell-based; details: PfCRT3D7 oocytes, total [3H]CQ transport, normalised to the oocyte type control
T1 sequence (Q8IBZ9 59-398): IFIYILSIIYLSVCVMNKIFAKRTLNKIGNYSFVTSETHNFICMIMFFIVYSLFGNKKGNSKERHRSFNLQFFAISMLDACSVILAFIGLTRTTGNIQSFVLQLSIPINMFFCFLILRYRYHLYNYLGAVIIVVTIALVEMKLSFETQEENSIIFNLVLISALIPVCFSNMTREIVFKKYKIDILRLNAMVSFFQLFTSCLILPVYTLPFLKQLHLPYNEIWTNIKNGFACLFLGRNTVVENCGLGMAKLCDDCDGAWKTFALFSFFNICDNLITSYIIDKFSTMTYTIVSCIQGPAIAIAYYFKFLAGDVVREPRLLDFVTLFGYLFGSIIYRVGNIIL
Method in brief: as §1

PfCRT^Dd2 [3] = target: T2, PfCRT^Dd2 (Plasmodium falciparum, UniProt Q9N623, A220S/I356T/K76T/M74I/N326S/N75E/Q271E/R371I); test: [3H]CQ uptake into Xenopus oocytes, cis-inhibition by unlabelled solute; assay type: cell-based; details: PfCRTDd2 oocytes, background [3H]CQ accumulation subtracted, normalised to oocyte type control
T2 sequence (Q9N623 whole entry A220S/I356T/K76T/M74I/N326S/N75E/Q271E/R371I): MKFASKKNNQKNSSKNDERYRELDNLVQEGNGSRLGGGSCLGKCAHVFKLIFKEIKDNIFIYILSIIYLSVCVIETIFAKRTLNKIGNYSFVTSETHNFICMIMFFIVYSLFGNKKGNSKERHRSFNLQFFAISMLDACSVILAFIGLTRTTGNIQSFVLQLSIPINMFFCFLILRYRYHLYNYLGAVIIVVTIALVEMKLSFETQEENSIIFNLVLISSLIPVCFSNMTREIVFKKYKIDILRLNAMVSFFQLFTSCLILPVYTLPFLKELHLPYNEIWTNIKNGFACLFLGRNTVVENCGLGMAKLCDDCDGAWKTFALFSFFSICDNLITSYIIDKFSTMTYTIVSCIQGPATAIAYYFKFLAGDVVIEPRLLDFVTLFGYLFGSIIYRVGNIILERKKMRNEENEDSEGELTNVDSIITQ
Method in brief: as §1

PfCRT^Ecu1110 [4] = target: T3, PfCRT^Ecu1110 (Plasmodium falciparum, UniProt Q9N623, A220S/I356L/K76T/N326D); test: as above; assay type: cell-based; details: for Uptake of [3H]CQ (% PfCRTEcu1110 control), cis-inhibition / PfCRT-mediated [3H]CQ transport, cis-inhibition (% PfCRTEcu1110 control): PfCRTEcu1110 oocytes; for Uptake of [3H]CQ (% PfCRTEcu1110 control), cis-inhibition: total [3H]CQ transport, normalised to the oocyte type control; for PfCRT-mediated [3H]CQ transport, cis-inhibition (% PfCRTEcu1110 control): background [3H]CQ accumulation subtracted, normalised to oocyte type control; for [3H]CQ transport (% PfCRTEcu1110 control), cis-inhibition, PfCRTEcu1110: PfCRT-mediated component (background subtracted), sheet title says normalised to PfCRTDd2 control, mean ± SEM, SEM
T3 sequence (Q9N623 whole entry A220S/I356L/K76T/N326D): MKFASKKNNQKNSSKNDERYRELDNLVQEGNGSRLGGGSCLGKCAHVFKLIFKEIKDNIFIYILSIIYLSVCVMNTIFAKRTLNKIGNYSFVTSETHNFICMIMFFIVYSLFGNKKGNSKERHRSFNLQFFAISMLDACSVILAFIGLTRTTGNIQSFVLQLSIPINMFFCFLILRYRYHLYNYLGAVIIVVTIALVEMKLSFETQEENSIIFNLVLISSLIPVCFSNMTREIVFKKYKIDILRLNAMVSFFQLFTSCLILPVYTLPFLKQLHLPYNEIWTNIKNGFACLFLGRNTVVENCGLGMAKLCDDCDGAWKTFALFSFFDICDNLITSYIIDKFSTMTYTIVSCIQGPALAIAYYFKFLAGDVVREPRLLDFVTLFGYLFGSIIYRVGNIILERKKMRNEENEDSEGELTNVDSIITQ
Method in brief: as §1

non-expressing oocytes [5] = assay type: cell-based, Xenopus laevis; details: non-expressing oocytes, total [3H]CQ transport, normalised to the oocyte type control
Method in brief: (§2)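 Oocytes (ten per treatment, ≥4 independent frogs/days) were preloaded by injecting VF-6 in 25 nL ND96 at pH 5.0, 5.5, 6.0 or 7.0, or Na^+-free choline buffer, then uptake run 1.5 h, 27.5 °C, ND96 pH 5.5 by default. Internal concentrations assumed ~400 nL oocyte volume.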

PfCRT^3D7 [6] = target: T1, PfCRT^3D7; test: cell-based; assay type: cell-based; details: PfCRT3D7 oocytes; for Uptake of [3H]CQ (% PfCRT3D7 control), trans-stimulation: total [3H]CQ transport, normalised to the oocyte type control; for PfCRT-mediated [3H]CQ transport, trans-stimulation (% PfCRT3D7 control): normalised to oocyte type control
Method in brief: as §2

PfCRT^Dd2 [7] = target: T2, PfCRT^Dd2; test: cell-based; assay type: cell-based; details: for Uptake of [3H]CQ (% PfCRTDd2 control), trans-stimulation / PfCRT-mediated [3H]CQ transport, trans-stimulation (% PfCRTDd2 control): PfCRTDd2 oocytes; for Uptake of [3H]CQ (% PfCRTDd2 control), trans-stimulation: total [3H]CQ transport, normalised to the oocyte type control; for PfCRT-mediated [3H]CQ transport, trans-stimulation (% PfCRTDd2 control): normalised to oocyte type control; for [3H]CQ transport (% PfCRTDd2 control), trans-stimulation, PfCRTDd2: PfCRT-mediated component (background subtracted), mean ± SEM, SEM
Method in brief: as §2

PfCRT^Ecu1110 [8] = target: T3, PfCRT^Ecu1110; test: cell-based; assay type: cell-based; details: for Uptake of [3H]CQ (% PfCRTEcu1110 control), trans-stimulation / PfCRT-mediated [3H]CQ transport, trans-stimulation (% PfCRTEcu1110 control): PfCRTEcu1110 oocytes; for Uptake of [3H]CQ (% PfCRTEcu1110 control), trans-stimulation: total [3H]CQ transport, normalised to the oocyte type control; for PfCRT-mediated [3H]CQ transport, trans-stimulation (% PfCRTEcu1110 control): normalised to oocyte type control; for [3H]CQ transport (% PfCRTDd2 control), trans-stimulation, PfCRTEcu1110: PfCRT-mediated component (background subtracted), sheet title says normalised to PfCRTDd2 control, mean ± SEM, SEM
Method in brief: as §2

PfNT1 = target: T4, PfNT1 (Plasmodium falciparum, UniProt Q8IDM6); test: cell-based; assay type: cell-based; details: PfNT1 oocytes, total [3H]CQ transport, normalised to the oocyte type control
T4 construct: expressed in transfected cells; host or cells: Xenopus laevis oocytes (stage V-VI), cRNA-injected
T4 sequence (Q8IDM6 whole entry): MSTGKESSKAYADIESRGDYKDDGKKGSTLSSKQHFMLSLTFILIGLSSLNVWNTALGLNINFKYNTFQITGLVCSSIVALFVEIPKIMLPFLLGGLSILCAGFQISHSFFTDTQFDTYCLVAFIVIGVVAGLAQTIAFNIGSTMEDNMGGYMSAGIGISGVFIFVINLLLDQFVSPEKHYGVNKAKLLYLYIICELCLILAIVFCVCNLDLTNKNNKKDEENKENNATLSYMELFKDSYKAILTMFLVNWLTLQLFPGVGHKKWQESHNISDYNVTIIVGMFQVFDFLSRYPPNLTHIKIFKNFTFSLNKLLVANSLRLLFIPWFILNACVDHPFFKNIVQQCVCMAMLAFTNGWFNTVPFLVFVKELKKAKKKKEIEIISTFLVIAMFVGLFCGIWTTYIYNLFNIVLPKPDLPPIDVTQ
Method in brief: as §2

[9] = [test solute]i = 45 mM (30 mM for some solutes due to solubility)
[10] = [test solute]i = 5 mM (intracellular)
[11] = [test solute]i = 45 mM (intracellular; 30 mM for some solutes due to solubility)
[12] = [test solute]i = 5 mM (injected)

PNAL [PL-4, host-derived peptide] was tested, and the “Uptake of [3H]CQ (% non-expressing oocyte control), cis-inhibition” value (non-expressing oocytes [1]; [test solute] = 1 mM) was 100 ± 4.7 % non-expressing oocyte control, the “Uptake of [3H]CQ (% non-expressing oocyte control), cis-inhibition” value (non-expressing oocytes [1]; [test solute] = 2 mM) was 99 ± 3.6 % non-expressing oocyte control and the “Uptake of [3H]CQ (% PfCRT3D7 control), cis-inhibition” value (PfCRT^3D7 [2]; [test solute] = 0.5 mM) was 99 ± 5.3 % PfCRT3D7 control. For the same substance, the “Uptake of [3H]CQ (% PfCRT3D7 control), cis-inhibition” value (PfCRT^3D7 [2]; [test solute] = 1 mM) was 98 ± 5.7 % PfCRT3D7 control, the “Uptake of [3H]CQ (% PfCRT3D7 control), cis-inhibition” value (PfCRT^3D7 [2]; [test solute] = 2 mM) was 101 ± 6.3 % PfCRT3D7 control and the “PfCRT-mediated [3H]CQ transport, cis-inhibition (% PfCRTDd2 control)” value (PfCRT^Dd2 [3]; [test solute] = 0.5 mM) was 68 ± 2.6 % PfCRTDd2 control. For the same substance, the “PfCRT-mediated [3H]CQ transport, cis-inhibition (% PfCRTDd2 control)” value (PfCRT^Dd2 [3]; [test solute] = 1 mM) was 55 ± 4.1 % PfCRTDd2 control, the “PfCRT-mediated [3H]CQ transport, cis-inhibition (% PfCRTDd2 control)” value (PfCRT^Dd2 [3]; [test solute] = 2 mM) was 39 ± 1.8 % PfCRTDd2 control and the “Uptake of [3H]CQ (% PfCRTEcu1110 control), cis-inhibition” value (PfCRT^Ecu1110 [4]; [test solute] = 0.5 mM) was 66 ± 2.9 % PfCRTEcu1110 control. The “Uptake of [3H]CQ (% PfCRTEcu1110 control), cis-inhibition” value (PfCRT^Ecu1110 [4]; [test solute] = 1 mM) was 57 ± 2.7 % PfCRTEcu1110 control, the “Uptake of [3H]CQ (% PfCRTEcu1110 control), cis-inhibition” value (PfCRT^Ecu1110 [4]; [test solute] = 2 mM) was 45 ± 2.4 % PfCRTEcu1110 control and the “PfCRT-mediated [3H]CQ transport, cis-inhibition (% PfCRTEcu1110 control)” value (PfCRT^Ecu1110 [4]; [test solute] = 0.5 mM) was 58 ± 0.5 % PfCRTEcu1110 control. For the same substance, the “PfCRT-mediated [3H]CQ transport, cis-inhibition (% PfCRTEcu1110 control)” value (PfCRT^Ecu1110 [4]; [test solute] = 1 mM) was 52 ± 2.6 % PfCRTEcu1110 control, the “PfCRT-mediated [3H]CQ transport, cis-inhibition (% PfCRTEcu1110 control)” value (PfCRT^Ecu1110 [4]; [test solute] = 2 mM) was 39 ± 2.1 % PfCRTEcu1110 control and the “[3H]CQ transport (% PfCRTEcu1110 control), cis-inhibition, PfCRTEcu1110” value (PfCRT^Ecu1110 [4]; [test solute] = 0.5 mM) was 18 ± 0.2 % PfCRTEcu1110 control. For the same substance, the “[3H]CQ transport (% PfCRTEcu1110 control), cis-inhibition, PfCRTEcu1110” value (PfCRT^Ecu1110 [4]; [test solute] = 1 mM) was 16 ± 0.1 % PfCRTEcu1110 control, the “[3H]CQ transport (% PfCRTEcu1110 control), cis-inhibition, PfCRTEcu1110” value (PfCRT^Ecu1110 [4]; [test solute] = 2 mM) was 12 ± 0.3 % PfCRTEcu1110 control and the “Uptake of [3H]CQ (% non-expressing oocyte control), trans-stimulation” value (non-expressing oocytes [5]; [test solute]i = 5 mM) was 100 ± 3.8 % non-expressing oocyte control. For the same substance, the “Uptake of [3H]CQ (% non-expressing oocyte control), trans-stimulation” value (non-expressing oocytes [5]; [9]) was 99 ± 3.7 % non-expressing oocyte control, the “Uptake of [3H]CQ (% PfCRT3D7 control), trans-stimulation” value (PfCRT^3D7 [6]; [test solute]i = 5 mM) was 100 ± 2.2 % PfCRT3D7 control and the “Uptake of [3H]CQ (% PfCRT3D7 control), trans-stimulation” value (PfCRT^3D7 [6]; [9]) was 101 ± 2.1 % PfCRT3D7 control. For the same substance, the “PfCRT-mediated [3H]CQ transport, trans-stimulation (% PfCRT3D7 control)” value (PfCRT^3D7 [6]; [10]) was 98 ± 4.3 % PfCRT3D7 control, the “PfCRT-mediated [3H]CQ transport, trans-stimulation (% PfCRT3D7 control)” value (PfCRT^3D7 [6]; [11]) was 99 ± 3.4 % PfCRT3D7 control and the “Uptake of [3H]CQ (% PfCRTDd2 control), trans-stimulation” value (PfCRT^Dd2 [7]; [test solute]i = 5 mM) was 99 ± 3.4 % PfCRTDd2 control. The “Uptake of [3H]CQ (% PfCRTDd2 control), trans-stimulation” value (PfCRT^Dd2 [7]; [9]) was 97 ± 4.3 % PfCRTDd2 control, the “PfCRT-mediated [3H]CQ transport, trans-stimulation (% PfCRTDd2 control)” value (PfCRT^Dd2 [7]; [10]) was 97 ± 2.1 % PfCRTDd2 control and the “PfCRT-mediated [3H]CQ transport, trans-stimulation (% PfCRTDd2 control)” value (PfCRT^Dd2 [7]; [11]) was 95 ± 3.8 % PfCRTDd2 control. The “[3H]CQ transport (% PfCRTDd2 control), trans-stimulation, PfCRTDd2” value (PfCRT^Dd2 [7]; [12]) was 97 ± 2.1 % PfCRTDd2 control, the “[3H]CQ transport (% PfCRTDd2 control), trans-stimulation, PfCRTDd2” value (PfCRT^Dd2 [7]; [9]) was 95 ± 3.8 % PfCRTDd2 control and the “Uptake of [3H]CQ (% PfCRTEcu1110 control), trans-stimulation” value (PfCRT^Ecu1110 [8]; [test solute]i = 5 mM) was 99 ± 3.3 % PfCRTEcu1110 control. For the same substance, the “Uptake of [3H]CQ (% PfCRTEcu1110 control), trans-stimulation” value (PfCRT^Ecu1110 [8]; [9]) was 100 ± 2.2 % PfCRTEcu1110 control, the “PfCRT-mediated [3H]CQ transport, trans-stimulation (% PfCRTEcu1110 control)” value (PfCRT^Ecu1110 [8]; [10]) was 97 ± 4.9 % PfCRTEcu1110 control and the “PfCRT-mediated [3H]CQ transport, trans-stimulation (% PfCRTEcu1110 control)” value (PfCRT^Ecu1110 [8]; [11]) was 98 ± 3.0 % PfCRTEcu1110 control. For the same substance, the “[3H]CQ transport (% PfCRTDd2 control), trans-stimulation, PfCRTEcu1110” value (PfCRT^Ecu1110 [8]; [12]) was 29 ± 1.7 % PfCRTEcu1110 control, the “[3H]CQ transport (% PfCRTDd2 control), trans-stimulation, PfCRTEcu1110” value (PfCRT^Ecu1110 [8]; [9]) was 30 ± 1.4 % PfCRTEcu1110 control and the “Uptake of [3H]CQ (% PfNT1 control), trans-stimulation” value (PfNT1; [test solute]i = 5 mM) was 99 ± 3.2 % PfNT1 control. For the same substance, the “Uptake of [3H]CQ (% PfNT1 control), trans-stimulation” value (PfNT1; [9]) was 100 ± 2.4 % PfNT1 control.
